Measured values as given in paper PMC3545186 (Biochemical Pharmacology, 2013).
Numbered stars: 1 amine (or outer) side, 2 acyl side, 3 side chain; on linkers, the order of the positions; unused ones are H or OH. Bridge positions count the residues as written; N and C are the ends. Square brackets hold non-standard residues; d marks the D form. Peptide text beside a SMILES is read from it. I, II: the chains in the order shown. Actinocin(9to1) = Cc1c2oc3c(C)ccc(C(=O)[*:1])c3nc-2c(C(=O)[*:2])c(N)c1=O; NMeV = CN[C@H](C(=O)O)C(C)C; Sar = CNCC(=O)O

What was measured:
[1] = paediatric patient population; cited from earlier work
ABCB1 (MDR1) = assay: Growth inhibition; conditions: dog, 72 h
MDCKII-ABCB1 cells = assay: Growth inhibition
MDCKII-ABCC2 cells = assay: Intracellular accumulation of Act D; type: in vitro ADME, canine

Which “range in AUC0–6 h between patients” value [1] does the source give for `Cc1c2oc3c(C)ccc(C(=O)N[C@@H]4C(=O)N[C@H](C(C)C)C(=O)N5CCC[C@H]5C(=O)N(C)CC(=O)N(C)[C@@H](C(C)C)C(=O)O[C@@H]4C)c3nc-2c(C(=O)N[C@@H]2C(=O)N[C@H](C(C)C)C(=O)N3CCC[C@H]3C(=O)N(C)CC(=O)N(C)[C@@H](C(C)C)C(=O)O[C@@H]2C)c(N)c1=O` [Act D, actinomycin D] (I: T[dV]P[Sar][NMeV] / II: T[dV]P[Sar][NMeV]; ester I:1-I:C, II:1-II:C; linker I:N-II:N via Actinocin(9to1)) here?
The value was over 4 fold.

And the GI50 at 72 h (ABCB1 (MDR1); GI50, MDCKII-ABCB1, + verapamil (1 μM))?
The GI50 at 72 h was 129 nM.

What about the GI50 at 72 h (ABCB1 (MDR1); GI50, MDCKII-ABCB1, Act D alone) of the same compound?
The GI50 at 72 h was 745 nM.

And the “decrease in GI50 with verapamil” value (MDCKII-ABCB1 cells; MDCKII-ABCB1, verapamil 1 μM, 72 h)?
Its value is 6 fold.

And the “difference in GI50 between MDCKII-WT and MDCKII-ABCB1” value (MDCKII-ABCB1 cells; MDCKII-ABCB1 less sensitive than parental)?
The value was 59 fold.

And the “increased accumulation with MK571 compared to absence of inhibitor” value (MDCKII-ABCC2 cells; MDCKII-ABCC2, not statistically significant)?
Its value is 1.4 fold.

What about the “lower accumulation of Act D compared to parental cell line” value (MDCKII-ABCC2 cells; MDCKII-ABCC2 vs MDCKII-WT, 12 h) of the same compound?
The value was 3.5 fold.
